Source: ChEMBL document CHEMBL4184203, “A review on the hybrids of hydroxycinnamic acid as multi-target-directed ligands against Alzheimer's disease” (Bioorg Med Chem, 2018)

Target: Amyloid-beta precursor protein (Homo sapiens) (UniProt P05067)
Test: Inhibition of self-mediated aggregation of amyloid beta (1 to 42 residues) (unknown origin) at 10 uM by Thioflavin T based assay relative to control

Amyloid-beta precursor protein (Homo sapiens), sequence (P05067 whole entry, the tested form may be a part): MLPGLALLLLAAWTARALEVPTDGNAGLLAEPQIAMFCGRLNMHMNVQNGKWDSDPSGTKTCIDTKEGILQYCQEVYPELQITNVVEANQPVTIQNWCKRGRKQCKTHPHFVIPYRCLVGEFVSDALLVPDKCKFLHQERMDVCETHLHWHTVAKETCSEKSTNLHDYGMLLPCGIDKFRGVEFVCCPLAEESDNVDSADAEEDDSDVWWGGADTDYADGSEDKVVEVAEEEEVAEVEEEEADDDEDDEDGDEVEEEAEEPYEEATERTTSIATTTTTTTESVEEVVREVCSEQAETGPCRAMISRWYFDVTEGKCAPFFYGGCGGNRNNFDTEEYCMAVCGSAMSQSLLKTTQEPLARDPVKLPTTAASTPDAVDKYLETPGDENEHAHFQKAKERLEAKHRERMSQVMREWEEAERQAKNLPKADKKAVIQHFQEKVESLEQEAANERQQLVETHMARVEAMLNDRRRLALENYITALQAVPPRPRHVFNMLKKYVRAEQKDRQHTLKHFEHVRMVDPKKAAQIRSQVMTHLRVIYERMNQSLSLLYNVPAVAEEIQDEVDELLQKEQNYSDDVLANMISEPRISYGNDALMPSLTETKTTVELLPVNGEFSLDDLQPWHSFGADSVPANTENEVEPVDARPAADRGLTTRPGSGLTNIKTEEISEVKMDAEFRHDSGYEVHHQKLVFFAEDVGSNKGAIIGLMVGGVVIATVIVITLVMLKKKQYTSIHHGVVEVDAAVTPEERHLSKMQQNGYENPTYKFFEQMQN

SMILES: COc1cc(/C=C/C(=O)Nc2ccc(-c3ccc(NC(=O)/C=C/c4ccc(O)c(OC)c4)cc3)cc2)ccc1O
- inhibition: 83.7%
